The record followed here is patent publication EP2208725A1, “Novel specific inhibitors of ubiquitin specific protease 7, the pharmaceutical compositions thereof and their therapeutic applications” (Hybrigenics S.A., priority 2009, dated 2010).

This assay concerns the target T1, UCH-L3 (Homo sapiens, UniProt P15374).
T1 sequence (P15374 1-230): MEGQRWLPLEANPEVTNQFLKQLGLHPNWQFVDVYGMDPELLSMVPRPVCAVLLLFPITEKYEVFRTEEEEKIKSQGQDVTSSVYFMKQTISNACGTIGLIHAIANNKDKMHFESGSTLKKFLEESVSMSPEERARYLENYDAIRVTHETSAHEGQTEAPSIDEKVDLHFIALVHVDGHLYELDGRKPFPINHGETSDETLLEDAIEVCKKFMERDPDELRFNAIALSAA
Put plainly: UCH-L3 activity assay (Ub-AMC). The assay is classed as biochemical. As to conditions: 400 nM Ub-AMC, 13 pM enzyme; compounds tested from 200 µM to 91 nM; unit inferred; read-out: Inhibition of cysteine protease activities: Uch-L3. The method, then: UCH-L3 was diluted in USP buffer (50 mM Tris HCl; 0.5 mM EDTA; 5 mM DTT; 0.01% Triton X-100; Bovine Serum Albumin 0.05 mg.ml^-1 pH7.6). Compounds stocks (100 mM) were stored at -20°C in DMSO. Compounds were tested at different concentrations: from 200 µM to 91 nM. Reactions were performed as duplicates in Black LJL 96 well plates (HE microplates; Molecular Devices; 20 µl final reaction volume). The substrate concentration for UCH-L3 was 400 nM Ub-AMC (Boston Biochem). The concentration of the enzyme (UCH-L3) in specificity assays was 13 pM. The concentrations were determined in order to perform specificity assays under initial velocities at fixed substrate concentration. Compounds were pre-incubated with enzymes for 30 minutes at 25°C. Reactions were initiated by addition of substrate to the plates containing the enzymes (+/- compounds) diluted in assay buffer. Reactions were incubated for 60 minutes at 37°C. Reactions were stopped by adding acetic acid (100 mM final). Readings were performed on a Pherastar Fluorescent Reader (BMG). λ Emission 380 nm; λ Excitation = 460 nm. Data (mean values +/- standard deviation) were analyzed as % of control (no compound) and plotted as percentage versus the Log of the compound concentration using GraphPad (Prism). Data were fitted to a sigmoidal model (variable slope).
In the case of `CC(=O)C1=C(O)C(=O)N(CCc2ccc(Cl)cc2)C1c1ccc(Br)cc1` (stereo not shown) [Example 25, 4-acetyl-5-(4-bromo-phenyl)-1-[2-(4-chloro-phenyl)-ethyl]-3-hydroxy-1,5-dihydro-pyrrol-2-one], the IC50 was more than 200 µM.
The result for `CC(=O)C1=C(O)C(=O)N(CCc2ccc(Br)cc2)C1c1ccc(Br)cc1` (stereo not shown) [Example 26, 4-acetyl-5-(4-bromo-phenyl)-1-[2-(4-bromo-phenyl)-ethyl]-3-hydroxy-1,5-dihydro-pyrrol-2-one] reads more than 200 µM.
Turning to `CC(=O)C1=C(O)C(=O)N(CCc2ccc(Cl)c(Cl)c2)C1c1ccc(Br)cc1` (stereo not shown) [Example 28, 4-acetyl-5-(4-bromo-phenyl)-1-[2-(3,4-dichloro-phenyl)-ethyl]-3-hydroxy-1,5-dihydro-pyrrol-2-one], the IC50 was more than 200 µM.
Next, `COc1cccc(CCN2C(=O)C(O)=C(C(C)=O)C2c2ccc(Br)cc2)c1` (stereo not shown) [Example 30, 4-acetyl-5-(4-bromo-phenyl)-3-hydroxy-1-[2-(3-methoxyphenyl)-ethyl]-1,5-dihydro-pyrrol-2-one]: more than 200 µM.
Turning to `COc1ccc(CCN2C(=O)C(O)=C(C(C)=O)C2c2ccc(Br)cc2)cc1` (stereo not shown) [Example 32, 4-acetyl-5-(4-bromo-phenyl)-3-hydroxy-1-[2-(4-methoxyphenyl)-ethyl]-1,5-dihydro-pyrrol-2-one], the IC50 was more than 200 µM.
Take `CC(=O)C1=C(O)C(=O)N(CCc2ccc(F)cc2)C1c1ccc(Br)cc1` (stereo not shown) [Example 33, 4-acetyl-5-(4-bromo-phenyl)-3-hydroxy-1-[2-(4-fluorophenyl)-ethyl]-1,5-dihydro-pyrrol-2-one]: the IC50 was more than 200 µM.
Next, `CCOc1ccc(CCN2C(=O)C(O)=C(C(C)=O)C2c2ccc(Br)cc2)cc1` (stereo not shown) [Example 34, 4-acetyl-5-(4-bromo-phenyl)-3-hydroxy-1-[2-(4-ethoxy-phenyl)-ethyl]-1,5-dihydro-pyrrol-2-one]: more than 200 µM; `CC(=O)C1=C(O)C(=O)N(CCc2ccccc2)C1c1ccc2c(c1)OCO2` (stereo not shown) [Example 37, 4-acetyl-5-benzo[1,3]dioxol-5-yl-3-hydroxy-1-phenethyl-1,5-dihydro-pyrrol-2-one]: more than 200 µM.
In the case of `CC(=O)C1=C(O)C(=O)N(CCc2ccccc2)C1c1ccc(Br)c(Br)c1` (stereo not shown) [Example 41, 4-acetyl-5-(3,4-dibromo-phenyl)-3-hydroxy-1-phenethyl-1,5-dihydro-pyrrol-2-one], the IC50 was more than 200 µM.
Regarding `CC(=O)C1=C(O)C(=O)N(CCc2ccccc2)C1c1cccnc1Cl` (stereo not shown) [Example 42, 4-acetyl-5-(2-chloro-pyridin-3-yl)-3-hydroxy-1-phenethyl-1,5-dihydro-pyrrol-2-one], the IC50 is more than 200 µM.
Next, `CC(=O)C1=C(O)C(=O)N(CCc2ccc(Br)cc2)C1c1ccc(Cl)cc1` (stereo not shown) [Example 45, 4-Acetyl-5-(4-chlorophenyl)-1-[2-(4-bromophenyl)-ethyl]-3-hydroxy-1,5-dihydro-pyrrol-2-one]: more than 200 µM; `CC(=O)C1=C(O)C(=O)N(CCc2ccc(Cl)cc2)C1c1ccc(Cl)cc1` (stereo not shown) [Example 46, 4-Acetyl-5-(4-chlorophenyl)-1-[2-(4-chlorophenyl)-ethyl]-3-hydroxy-1,5-dihydro-pyrrol-2-one]: more than 200 µM; `CC(=O)C1=C(O)C(=O)N(CCc2ccc(Cl)cc2Cl)C1c1ccc(Br)cc1` (stereo not shown) [Example 47, 4-Acetyl-5-(4-bromophenyl)-1-[2-(2,4-dichlorophenyl)-ethyl]-3-hydroxy-1,5-dihydro-pyrrol-2-one]: more than 200 µM.
